# Data published in patent US20120316105A1, “Polymyxin Derivates Useful As Antibacterial Agents” (priority 2011, published 2012).
# Bridge positions count the residues as written; N and C are the ends. Square brackets hold non-standard residues; d marks the D form. Peptide text beside a SMILES is read from it. * marks the point of attachment. Benzoyl(3-Ph) = O=C(c1cccc(-c2ccccc2)c1)*; Quinoline3carbonyl = O=C(c1cnc2ccccc2c1)*; X9 = N#Cc1ccc(-c2cc(C(=O)*)ccc2F)nc1; X29 = COc1cc(C(=O)*)cc(-c2ccccc2)c1; X34 = COc1ccc(-c2cc(C(=O)*)ccn2)cc1; X15 = O=C(c1cccc(-c2cccc(F)c2)c1)*; X6 = O=C(c1cccc(-c2ccc(F)cc2)c1)*; X11 = Cc1ccccc1-c1cccc(C(=O)*)c1; X14 = CC(C)c1cccc(C(=O)*)c1; Dab = NCC[C@H](N)C(=O)O; Dap = NC[C@H](N)C(=O)O
# Legend:
# [1] = test system: AB-1649, polymyxin-resistant clinical isolate of Acinetobacter baumannii; assay type: cell-based; conditions: AB-1649, polymyxin-resistant clinical isolate of
# Method: (§1) Minimum bactericidal concentration (MBC, mg/L), minimum inhibitory concentration (MIC, mg/L), and human renal proximal tubule epithelial cell line cytotoxicity concentration 50% (hRPTEC, TC50, micromolar) for compounds of Formula I are listed in Table 2. The compounds of Formula I were tested as the corresponding trifluoroacetate salt except for Example 1 which was tested as the sulfate salt. For Table 2 below: PMB=polymyxin B as the sulfate salt (Bedford Laboratories, pharmaceutical grade); PMB1=polymyxin B1 as the trifluoroacetate salt; Nona=polymyxin B nonapeptide as the trifluoroacetate salt. PMB1 and Nona were prepared using the solid phase methodology described in the experimental section herein.
# (§2) The in vitro antibacterial activity of compounds of Formula I was evaluated by MIC testing according to Clinical and Laboratory Standards Institute (CLSI). See: Clinical and Laboratory Standards Institute. Methods for Dilution Antimicrobial Susceptibility Tests for Bacteria that Grow Aerobically; Approved Standard-Eighth Edition. CLSI document M7-A8 [ISBN 1-56238-689-1]. Clinical and Laboratory Standards Institute, 940 West Valley Road, Suite 1400, Wayne, Pa. 19087-1898 USA, 2006; also Clinical and Laboratory Standards Institute. Performance Standards for Antimicrobial Susceptibility Testing; Twentieth Informational Supplement. CLSI document M100-S20 [ISBN 1-56238-716-2]. Clinical and Laboratory Standards Institute. Methods for Determining Bactericidal Activity of Antimicrobial Agents; Approved Guideline. CLSI document M26-A (ISBN 1-56238-384-1). CLSI, 940 West Valley Road, Suite 1400, Wayne, Pa. 19087-1898 USA, 1999.
# (§3) The MIC determination is a standard laboratory method for evaluating the antibacterial activity of a compound. The MIC represents the lowest drug concentration that inhibits visible growth of bacteria following overnight incubation. […] Typically, the drug concentration range is broken down into 2-fold increments (e.g. 0.06 mg/L, 0.12 mg/L, 0.25 mg/L, 0.50 mg/L, 1.0 mg/L, etc.) and the various drug concentrations are all individually incubated overnight with approximately the same number of bacteria. The MIC is then determined by visually inspecting the drug effect at each concentration, and identifying the lowest drug concentration that has inhibited bacterial growth as compared to the drug free control. Typically, bacteria continue to grow at drug concentrations lower than the MIC and don't grow at concentrations at and above the MIC.
# (§4) The MIC values described in Table 2 below were derived from assays wherein each test compound was evaluated in duplicate. In cases where the duplicate values varied by 0-2-fold, the lower of the two values was reported below. Generally speaking, if the duplicate values varied by more than 2-fold, the assay was considered non-valid and was repeated until the variation between duplicate runs was ≦2-fold. In line with the CLSI guidelines referred to above, both control organisms and reference compounds were utilized in each MIC assay to provide proper quality control. MIC values generated with these control organisms and reference compounds were required to fall within a defined range for the assay to be considered valid and be included herein. Those skilled in the art will recognize that MIC values can and do vary from experiment to experiment. Generally speaking, it should be recognized that MIC values often vary +/−2-fold from experiment to experiment. While a single MIC is reported for each compound and each microorganism, the reader should not conclude that each compound was only tested once. Several of the compounds were subjected to multiple tests. The data reported in Table 2 is reflective of the compounds relative activity and different MICs may have been generated on these occasions in line with the guidelines described above.
# (§5) The following bacterial strains were used in these MIC determinations: […]
# [2] = test system: AB-3167, clinical isolate of Acinetobacter baumannii; assay type: cell-based; conditions: AB-3167, clinical isolate of
# Method: as §1, §2, §3, §4, §5
# [3] = test system: PA-1646, polymyxin-resistant clinical isolate of Pseudomonas aeruginosa; assay type: cell-based; conditions: PA-1646, polymyxin-resistant clinical isolate of
# Method: as §1, §2, §3, §4, §5
# [4] = test system: Pseudomonas aeruginosa strain PA01; assay type: cell-based; conditions: strain
# Method: as §1, §2, §3, §4, §5
# [5] = test system: PA-1646, polymyxin-resistant clinical isolate of Pseudomonas aeruginosa; assay type: cell-based; conditions: PA-1646, polymyxin-resistant clinical isolate of; remark: listed apart in the source
# Method: as §1, §2
# PA-1646 is a polymyxin-resistant clinical isolate of Pseudomonas aeruginosa obtained from JMI labs (www.jmilabs.com);
# [6] = Cytotoxicity assay (LDH release), hRPTEC; assay type: cell-based, human; conditions: human
# Method: as §1
# Human Renal Proximal Tubule Epithelial cells (hRPTEC) were obtained from Lonza (Walkersville, Md., USA) and cultured in REGM (Renal Epithelial Cell Basal Medium supplemented with human epithelial growth factor, hydrocortisone, epinephrine, insulin, triiodothyronine, transferrin, gentamycin/amphotericin-B, and fetal bovine serum). The hRPTEC cells were seeded into 96-well plates and incubated at 37° C. in 5% CO2. Following a growth period of 72 hours, cells were treated with compounds at 100, 67, 44, 30, 20 and 13 micromolar for 24 hours at 37° C. in 5% CO2. The cell supernatant was then harvested for determination of LDH (lactate dehydrogenase) production. The Cytotoxicity Detection Kit from Roche was used for the measurement of LDH activity released from damaged cells. The Toxic Concentration 50% (TC50, micromolar) values were determined for each compound and compared to the control compounds (polymyxin B was used as a positive control and polymyxin B nonapepetide was used as negative control).
# [7] = test system: EC-1, mouse virulent strain of Escherichia coli; assay type: cell-based; conditions: E. coli EC-1; overnight incubation, lower of duplicate values; trifluoroacetate salt (Example 1 and PMB sulfate)
# Method: as §1, §2, §3, §4
# The following bacterial strains were used in these MIC determinations:
# EC-1 is a mouse virulent strain of Escherichia coli.
# [8] = test system: AB-1649, polymyxin-resistant clinical isolate of Acinetobacter baumannii; assay type: cell-based; conditions: AB-1649, polymyxin-resistant clinical isolate of; remark: listed apart in the source
# Method: as §1, §2
# AB-1649 is a polymyxin-resistant clinical isolate of Acinetobacter baumannii obtained from JMI labs (www.jmilabs.com);
SMILES,AB-1649 MIC [1] [µg/mL],AB-3167 MIC [2] [µg/mL],PA-1646 MIC [3] [µg/mL],PA01 MIC [4] [µg/mL],PA-1646 MBC [5] [µg/mL],CC50 at 24 h [6] [µM],EC-1 MIC [7] [µg/mL],AB-1649 MBC [8] [µg/mL]
COc1cc(C(=O)N[C@@H](CCN)C(=O)N[C@H](C(=O)N[C@@H](CN)C(=O)N[C@H]2CCNC(=O)[C@H]([C@@H](C)O)NC(=O)[C@H](CCN)NC(=O)[C@H](CCN)NC(=O)[C@H](CC(C)C)NC(=O)[C@@H](Cc3ccccc3)NC(=O)[C@H](CCN)NC2=O)[C@@H](C)O)cc(-c2ccccc2)c1 [Example 17] (X29-[Dab]T[Dap][Dab][Dab][dF]L[Dab][Dab]T; lactam 4-C),4,0.25,2,0.5,4,26,0.25,8
CC(C)C[C@@H]1NC(=O)[C@@H](Cc2ccccc2)NC(=O)[C@H](CCN)NC(=O)[C@@H](NC(=O)[C@H](CN)NC(=O)[C@@H](NC(=O)[C@H](CCN)NC(=O)c2cccc(-c3cccc(F)c3)c2)[C@@H](C)O)CCNC(=O)[C@H]([C@@H](C)O)NC(=O)[C@H](CCN)NC(=O)[C@H](CCN)NC1=O [Example 18] (X15-[Dab]T[Dap][Dab][Dab][dF]L[Dab][Dab]T; lactam 4-C),2,0.5,1,1,1,22,0.25,2
CC(C)C[C@@H]1NC(=O)[C@@H](Cc2ccccc2)NC(=O)[C@H](CCN)NC(=O)[C@@H](NC(=O)[C@H](CN)NC(=O)[C@@H](NC(=O)[C@H](CCN)NC(=O)c2cccc(-c3ccccc3)c2)[C@@H](C)O)CCNC(=O)[C@H]([C@@H](C)O)NC(=O)[C@H](CCN)NC(=O)[C@H](CCN)NC1=O [Example 19] ({Benzoyl(3-Ph)}-[Dab]T[Dap][Dab][Dab][dF]L[Dab][Dab]T; lactam 4-C),2,0.25,1,0.5,2,21,0.25,2
CC(C)C[C@@H]1NC(=O)[C@@H](Cc2ccccc2)NC(=O)[C@H](CCN)NC(=O)[C@@H](NC(=O)[C@H](CN)NC(=O)[C@@H](NC(=O)[C@H](CCN)NC(=O)c2cccc(-c3ccc(F)cc3)c2)[C@@H](C)O)CCNC(=O)[C@H]([C@@H](C)O)NC(=O)[C@H](CCN)NC(=O)[C@H](CCN)NC1=O [Example 20] (X6-[Dab]T[Dap][Dab][Dab][dF]L[Dab][Dab]T; lactam 4-C),2,0.25,1,0.5,1,18,0.25,2
Cc1ccccc1-c1cccc(C(=O)N[C@@H](CCN)C(=O)N[C@H](C(=O)N[C@@H](CN)C(=O)N[C@H]2CCNC(=O)[C@H]([C@@H](C)O)NC(=O)[C@H](CCN)NC(=O)[C@H](CCN)NC(=O)[C@H](CC(C)C)NC(=O)[C@@H](Cc3ccccc3)NC(=O)[C@H](CCN)NC2=O)[C@@H](C)O)c1 [Example 21] (X11-[Dab]T[Dap][Dab][Dab][dF]L[Dab][Dab]T; lactam 4-C),2,0.25,2,1,2,15,0.25,2
COc1ccc(-c2cc(C(=O)N[C@@H](CCN)C(=O)N[C@H](C(=O)N[C@@H](CN)C(=O)N[C@H]3CCNC(=O)[C@H]([C@@H](C)O)NC(=O)[C@H](CCN)NC(=O)[C@H](CCN)NC(=O)[C@H](CC(C)C)NC(=O)[C@@H](Cc4ccccc4)NC(=O)[C@H](CCN)NC3=O)[C@@H](C)O)ccn2)cc1 [Example 22] (X34-[Dab]T[Dap][Dab][Dab][dF]L[Dab][Dab]T; lactam 4-C),2,0.25,2,0.5,8,78,0.25,2
CC(C)C[C@@H]1NC(=O)[C@@H](Cc2ccccc2)NC(=O)[C@H](CCN)NC(=O)[C@@H](NC(=O)[C@H](CN)NC(=O)[C@@H](NC(=O)[C@H](CCN)NC(=O)c2cnc3ccccc3c2)[C@@H](C)O)CCNC(=O)[C@H]([C@@H](C)O)NC(=O)[C@H](CCN)NC(=O)[C@H](CCN)NC1=O [Example 23] (Quinoline3carbonyl-[Dab]T[Dap][Dab][Dab][dF]L[Dab][Dab]T; lactam 4-C),4,0.5,4,0.25,4,> 100,0.125,8
CC(C)C[C@@H]1NC(=O)[C@@H](Cc2ccccc2)NC(=O)[C@H](CCN)NC(=O)[C@@H](NC(=O)[C@H](CN)NC(=O)[C@@H](NC(=O)[C@H](CCN)NC(=O)c2ccc(F)c(-c3ccc(C#N)cn3)c2)[C@@H](C)O)CCNC(=O)[C@H]([C@@H](C)O)NC(=O)[C@H](CCN)NC(=O)[C@H](CCN)NC1=O [Example 24] (X9-[Dab]T[Dap][Dab][Dab][dF]L[Dab][Dab]T; lactam 4-C),4,0.5,4,1,16,> 100,0.25,8
CC(C)C[C@@H]1NC(=O)[C@@H](Cc2ccccc2)NC(=O)[C@H](CCN)NC(=O)[C@@H](NC(=O)[C@H](CN)NC(=O)[C@@H](NC(=O)[C@H](CCN)NC(=O)c2cccc(C(C)C)c2)[C@@H](C)O)CCNC(=O)[C@H]([C@@H](C)O)NC(=O)[C@H](CCN)NC(=O)[C@H](CCN)NC1=O [Example 25] (X14-[Dab]T[Dap][Dab][Dab][dF]L[Dab][Dab]T; lactam 4-C),4,0.25,4,1,16,88,0.25,4
